In US12209102B2, “Heterocyclic compounds and uses thereof” (Kumquat Biosciences Inc., priority 2022, dated 2025):

Assays:
A549 cells = test: Ras cellular assay, growth of cells with K-Ras G12S mutation (CellTiter-Glo); format: cell-based; details: Homo sapiens, cell growth, Example 9, G12S mutation, read-out: IC50 against A549 cells
How it was run: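 Growth inhibition IC50 values come from four-parameter fits of CellTiter-Glo luminescence, read about 6 days after compound addition. G12S-mutant A549 cells (e.g. 800/well, RPMI-1640 + 10% heat-inactivated FBS) were plated in tissue-culture-treated or ultra-low-attachment 384-well format. Dosing began the following day with serial dilutions, e.g. 10 points, 3-fold.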

K-Ras WT = target: T1, K-Ras WT (Homo sapiens, UniProt P01116); test: HTRF resonance energy transfer assay, K-Ras WT / SOS1 interaction; format: biochemical; details: HTRF assay of Example 5; read-out: IC50 against K-Ras WT
T1 construct: made in house; host or cells: E. coli BL21 (DE3)
How it was run: (§1)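 Compounds, tested in duplicate at 10 μM down to 0.01 μM, were read after about 10 min or more by HTRF as the 665/620 nm emission ratio (337 nm excitation) to derive IC50. This ratio reports FRET between an anti-GST-Eu donor on GST-K-Ras (wild-type or mutant) and an anti-6His-XL665 acceptor on His-hSOS1. Buffer: ~5 mM HEPES pH 7.4, 150 mM NaCl, 1 mM DTT, 0.05% BSA, 0.0025% Igepal.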

K-Ras G12D = target: T2, K-Ras G12D (Homo sapiens, UniProt P01116, G12D); test: HTRF resonance energy transfer assay, K-Ras G12D / SOS1 interaction; format: biochemical; details: HTRF assay of Example 5; read-out: IC50 against K-Ras G12D
T2 construct: made in house; host or cells: E. coli BL21 (DE3)
How it was run: as §1

SW620 cells = test: Ras cellular assay, growth of cells with K-Ras G12V mutation (CellTiter-Glo); format: cell-based; details: Homo sapiens, SW-620; cell growth, Example 9, G12V mutation; read-out: IC50 against SW620 cells
How it was run: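 IC50 values came from a four-parameter fit of CellTiter-Glo viability, read roughly 6 days after dosing with e.g. a 10-point threefold dilution series. G12V-mutant SW620 cells (e.g. 800 per well) had been plated the previous day in RPMI-1640/10% heat-inactivated FBS, on tissue culture-treated or ultra-low attachment plates.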

K-Ras G12V = target: T3, K-Ras G12V (Homo sapiens, UniProt P01116, G12V); test: HTRF resonance energy transfer assay, K-Ras G12V / SOS1 interaction; format: biochemical; details: HTRF assay of Example 5; read-out: IC50 against K-Ras G12V
T3 construct: made in house; host or cells: E. coli BL21 (DE3)
How it was run: as §1

GP2D cells = test: Ras cellular assay, growth of cells with K-Ras G12D mutation (CellTiter-Glo); format: cell-based; details: cell growth, Example 9, G12D mutation, read-out: IC50 against GP2D cells
K-Ras G12S = target: T4, K-Ras G12S (Homo sapiens, UniProt P01116, G12S); test: HTRF resonance energy transfer assay, K-Ras G12S / SOS1 interaction; format: biochemical; details: HTRF assay of Example 5; read-out: IC50 against K-Ras G12S
T4 construct: made in house; host or cells: E. coli BL21 (DE3)
How it was run: as §1

T3 sequence (P01116 1-188 isoform P01116-2 G12V): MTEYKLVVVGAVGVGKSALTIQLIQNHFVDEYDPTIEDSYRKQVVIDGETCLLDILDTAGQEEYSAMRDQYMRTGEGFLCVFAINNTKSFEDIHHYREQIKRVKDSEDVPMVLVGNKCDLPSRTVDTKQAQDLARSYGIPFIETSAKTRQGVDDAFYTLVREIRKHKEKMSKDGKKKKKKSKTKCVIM
T4 sequence (P01116 1-188 isoform P01116-2 G12S): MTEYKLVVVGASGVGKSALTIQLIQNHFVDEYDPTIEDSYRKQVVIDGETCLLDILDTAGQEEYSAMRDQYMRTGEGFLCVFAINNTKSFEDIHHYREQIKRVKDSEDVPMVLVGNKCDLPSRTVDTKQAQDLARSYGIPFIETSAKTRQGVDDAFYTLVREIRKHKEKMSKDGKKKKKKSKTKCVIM
T2 sequence (P01116 1-188 isoform P01116-2 G12D): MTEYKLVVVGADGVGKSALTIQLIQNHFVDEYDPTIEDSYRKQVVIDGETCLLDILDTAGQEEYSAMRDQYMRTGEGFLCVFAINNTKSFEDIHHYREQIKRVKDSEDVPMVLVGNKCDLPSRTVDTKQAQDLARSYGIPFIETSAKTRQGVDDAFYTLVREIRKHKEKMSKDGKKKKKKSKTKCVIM
T1 sequence (P01116 1-188 isoform P01116-2): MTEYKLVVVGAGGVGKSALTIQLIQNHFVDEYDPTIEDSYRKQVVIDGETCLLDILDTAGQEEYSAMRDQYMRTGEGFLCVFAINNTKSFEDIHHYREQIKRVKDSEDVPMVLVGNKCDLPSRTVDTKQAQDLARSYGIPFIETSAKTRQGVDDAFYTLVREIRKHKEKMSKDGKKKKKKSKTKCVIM

SMILES	IC50 (A549 cells) [nM]	IC50 (K-Ras WT) [nM]	IC50 (K-Ras G12D) [nM]	IC50 (SW620 cells) [nM]	IC50 (K-Ras G12V) [nM]	IC50 (GP2D cells) [nM]	IC50 (K-Ras G12S) [nM]
COC1(C(=O)N2CCC(N3CCOc4c(Cl)c(-c5ccc(F)c6sc(N)c(C#N)c56)c(F)c5nc(OC[C@@]67CCCN6C[C@H](F)C7)nc3c45)C2)CC1 (stereo partly drawn) [Compound 1038, 2-amino-4-(8-chloro-10-fluoro-2-(((2R,7aS)-2-fluorotetrahydro-1H-pyrrolizin-7a(5H)-yl)methoxy)-4-(1-(1-methoxycyclopropane-1-carbonyl)pyrrolidin-3-yl)-5,6-dihydro-4H-[1,4]oxazepino[5,6,7-de]quinazolin-9-yl)-7-fluorobenzo[b]thiophene-3-carbonitrile]	< 5000	< 100	< 100	< 5000	< 100	< 500	< 100
CC(C)(C#N)CN1CCOc2c(Cl)c(-c3ccc(F)c4sc(N)c(C#N)c34)c(F)c3nc(OC[C@@]45CCCN4C[C@H](F)C5)nc1c23 [Compound 1048, 2-amino-4-(8-chloro-4-(2-cyano-2-methylpropyl)-10-fluoro-2-(((2R,7aS)-2-fluorotetrahydro-1H-pyrrolizin-7a(5H)-yl)methoxy)-5,6-dihydro-4H-[1,4]oxazepino[5,6,7-de]quinazolin-9-yl)-7-fluorobenzo[b]thiophene-3-carbonitrile]	< 5000	< 100	< 100	< 5000	< 100	< 500	< 100
N#Cc1c(N)sc2c(F)ccc(-c3c(Cl)c4c5c(nc(OC[C@@]67CCCN6C[C@H](F)C7)nc5c3F)N(C3CCN(C=O)C3)CCO4)c12 (stereo partly drawn) [Compound 1052, 2-amino-4-(8-chloro-10-fluoro-2-(((2R,7aS)-2-fluorotetrahydro-1H-pyrrolizin-7a(5H)-yl)methoxy)-4-(1-formylpyrrolidin-3-yl)-5,6-dihydro-4H-[1,4]oxazepino[5,6,7-de]quinazolin-9-yl)-7-fluorobenzo[b]thiophene-3-carbonitrile]	< 5000	< 100	< 100	< 5000	< 100	< 500	< 100
N#Cc1c(N)sc2c(F)ccc(-c3c(Cl)c4c5c(nc(OC[C@@]67CCCN6C[C@H](F)C7)nc5c3F)N(CC(F)F)[C@@H](C(F)F)CO4)c12 [Compound 1057, 2-amino-4-((5R)-8-chloro-4-(2,2-difluoroethyl)-5-(difluoromethyl)-10-fluoro-2-(((2R,7aS)-2-fluorotetrahydro-1H-pyrrolizin-7a(5H)-yl)methoxy)-5,6-dihydro-4H-[1,4]oxazepino[5,6,7-de]quinazolin-9-yl)-7-fluorobenzo[b]thiophene-3-carbonitrile]	< 5000	< 100	< 100	< 5000	< 100	< 500	< 100
N#Cc1c(N)sc2c(F)ccc(-c3c(Cl)c4c5c(nc(OC[C@@]67CCCN6C[C@H](F)C7)nc5c3F)N(C3(C(F)F)CC3)CCO4)c12 [Compound 1060, 2-amino-4-(8-chloro-4-(1-(difluoromethyl)cyclopropyl)-10-fluoro-2-(((2R,7aS)-2-fluorotetrahydro-1H-pyrrolizin-7a(5H)-yl)methoxy)-5,6-dihydro-4H-[1,4]oxazepino[5,6,7-de]quinazolin-9-yl)-7-fluorobenzo[b]thiophene-3-carbonitrile]	< 5000	< 100	< 100	< 5000	< 100	< 500	< 100
COCCN1CCOc2c(Cl)c(-c3ccc(F)c4sc(N)c(C#N)c34)c(F)c3nc(OC[C@@]45CCCN4C[C@H](F)C5)nc1c23 [Compound 1061, 2-amino-4-(8-chloro-10-fluoro-2-(((2R,7aS)-2-fluorotetrahydro-1H-pyrrolizin-7a(5H)-yl)methoxy)-4-(2-methoxyethyl)-5,6-dihydro-4H-[1,4]oxazepino[5,6,7-de]quinazolin-9-yl)-7-fluorobenzo[b]thiophene-3-carbonitrile]	< 5000	< 100	< 100	< 5000	< 100	< 500	< 100
